The text below walks through data of patent publication US9765105B2, “Macrolide compound” (Pulike Biological Engineering, Inc., priority 2013, dated 2017).

Each structure is given as a SMILES string.

What all share (test): in vitro susceptibility, MIC by mini broth dilution
What all share (format): cell-based
(In general: In broth dilution the organism is exposed to a series of concentrations in liquid medium.)

Assay [1] deals with Staphylococcus aureus CVCC26003. To be noted: strain CVCC26003. Put shortly:
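MICs were determined by mini broth dilution under NCCLS standards in CAMHB, using revived S. aureus CVCC26003 subcultured 20 h at 35° C. Compounds were two-fold serially diluted in DMSO across 11 wells, with duplicate rows. Bacterial suspension was diluted 1:200 in medium before inoculation.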

Assay [2] concerns Actinobacillus pleuropneumoniae CVCC262. To be noted: strain CVCC262. The method, boiled down:
(§1)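 Following the NCCLS standard, each compound is serially halved in DMSO to give 11 concentrations, run in duplicate alongside a control well. Inocula come from colonies grown 20 h at 35° C and are diluted 1:200 into broth; MIC is taken by mini broth dilution.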

The subject of the next assay is Haemophilus parasuis. Put shortly: as §1
The subject of assay [3] is Pasteurella multocida CVCC399. To be noted: strain CVCC399. Put shortly:
as §1

For assay [4], the system named is Streptococcus equines CVCC556. To be noted: strain CVCC556. Put shortly:
as §1

For the compound `CCCN1C[C@H](C)[C@@H](O)[C@](C)(O)[C@@H](CC)OC(=O)[C@H](C)[C@@H](O[C@H]2C[C@@](C)(OC)[C@](O)(CNc3ccc(C)o3)[C@H](C)O2)[C@H](C)[C@@H](O[C@@H]2O[C@H](C)C[C@H](N(C)C)[C@H]2O)[C@](C)(O)C[C@H]1C` [syzx-178], in assay [1], the “MIC values, Staphylococcus aureus CVCC26003” value is listed as 4 ug/mi. Moreover, the “MIC values, Actinobacillus pleuropneumoniae CVCC262” value in assay [2] stood at 2 ug/mi. Also, the “MIC values, Haemophilus parasuis” value against Haemophilus parasuis is reported as 4 ug/mi. Besides, the “MIC values, Pasteurella multocida CVCC399” value in assay [3] was determined as 4 ug/mi. The “MIC values, Streptococcus equines CVCC556” value in assay [4] was determined as 0.5 ug/mi.

Regarding `CCCN1CC(C)C(O)C(C)(O)C(CC)OC(=O)C(C)C(OC2CC(C)(OC)C(O)(CNNc3ccc(F)cc3)C(C)O2)C(C)C(OC2OC(C)CC(N(C)C)C2O)C(C)(O)CC1C` (stereo not drawn) [syzx-181], the “MIC values, Staphylococcus aureus CVCC26003” value in assay [1] came to 0.25 ug/mi. Besides, the “MIC values, Actinobacillus pleuropneumoniae CVCC262” value in assay [2] was 0.5 ug/mi. The “MIC values, Haemophilus parasuis” value against Haemophilus parasuis is given as 0.25 ug/mi. Further, the “MIC values, Pasteurella multocida CVCC399” value in assay [3] was 1 ug/mi. The “MIC values, Streptococcus equines CVCC556” value in assay [4] was 0.25 ug/mi.

On to `CCCN1C[C@H](C)[C@@H](O)[C@](C)(O)[C@@H](CC)OC(=O)[C@H](C)[C@@H](O[C@H]2C[C@@](C)(OC)[C@](O)(CNOCc3ccccc3)[C@H](C)O2)[C@H](C)[C@@H](O[C@@H]2O[C@H](C)C[C@H](N(C)C)[C@H]2O)[C@](C)(O)C[C@H]1C` [syzx-182], for which the “MIC values, Staphylococcus aureus CVCC26003” value in assay [1] is listed as 1 ug/mi. Also, the “MIC values, Actinobacillus pleuropneumoniae CVCC262” value in assay [2] is listed as 0.5 ug/mi. Moreover, the “MIC values, Haemophilus parasuis” value in the assay with Haemophilus parasuis turned out to be 0.5 ug/mi. For the same compound, in assay [3], the “MIC values, Pasteurella multocida CVCC399” value came out at 4 ug/mi. Moreover, the “MIC values, Streptococcus equines CVCC556” value in assay [4] stood at 0.5 ug/mi.

On to `CCCN1C[C@H](C)[C@@H](O)[C@](C)(O)[C@@H](CC)OC(=O)[C@H](C)[C@@H](O[C@H]2C[C@@](C)(OC)[C@](O)(CNc3ccc(OC)cc3)[C@H](C)O2)[C@H](C)[C@@H](O[C@@H]2O[C@H](C)C[C@H](N(C)C)[C@H]2O)[C@](C)(O)C[C@H]1C` [syzx-183], for which the “MIC values, Staphylococcus aureus CVCC26003” value in assay [1] was determined as 0.25 ug/mi. Moreover, the “MIC values, Actinobacillus pleuropneumoniae CVCC262” value in assay [2] was found to be 0.5 ug/mi. The “MIC values, Haemophilus parasuis” value in the assay with Haemophilus parasuis was 0.25 ug/mi. In assay [3], the “MIC values, Pasteurella multocida CVCC399” value was 2 ug/mi. Also, in assay [4], the “MIC values, Streptococcus equines CVCC556” value was found to be 0.25 ug/mi.

Take `CCCN1C[C@H](C)[C@@H](O)[C@](C)(O)[C@@H](CC)OC(=O)[C@H](C)[C@@H](O[C@H]2C[C@@](C)(OC)[C@](O)(CNc3ccc(C)c(C)c3)[C@H](C)O2)[C@H](C)[C@@H](O[C@@H]2O[C@H](C)C[C@H](N(C)C)[C@H]2O)[C@](C)(O)C[C@H]1C` [syzx-184]: the “MIC values, Staphylococcus aureus CVCC26003” value in assay [1] was found to be 2 ug/mi. For the same compound, the “MIC values, Actinobacillus pleuropneumoniae CVCC262” value in assay [2] was 2 ug/mi. The “MIC values, Haemophilus parasuis” value against Haemophilus parasuis came out at 2 ug/mi. Moreover, the “MIC values, Pasteurella multocida CVCC399” value in assay [3] is listed as 4 ug/mi. The “MIC values, Streptococcus equines CVCC556” value in assay [4] amounted to 0.5 ug/mi.

As for `CCCN1C[C@H](C)[C@@H](O)[C@](C)(O)[C@@H](CC)OC(=O)[C@H](C)[C@@H](O[C@H]2C[C@@](C)(OC)[C@](O)(CNCCCN3CCOCC3)[C@H](C)O2)[C@H](C)[C@@H](O[C@@H]2O[C@H](C)C[C@H](N(C)C)[C@H]2O)[C@](C)(O)C[C@H]1C` [syzx-188], the “MIC values, Staphylococcus aureus CVCC26003” value in assay [1] came out at 0.5 ug/mi. For the same compound, the “MIC values, Actinobacillus pleuropneumoniae CVCC262” value in assay [2] came out at 0.5 ug/mi. In addition, the “MIC values, Haemophilus parasuis” value against Haemophilus parasuis is given as 0.5 ug/mi. Besides, in assay [3], the “MIC values, Pasteurella multocida CVCC399” value is given as 1 ug/mi. For the same compound, the “MIC values, Streptococcus equines CVCC556” value in assay [4] was found to be 0.25 ug/mi.

Consider `CCCN1CC(C)C(O)C(C)(O)C(CC)OC(=O)C(C)C(OC2CC(C)(OC)C(O)(CNCCN3CCCC3)C(C)O2)C(C)C(OC2OC(C)CC(N(C)C)C2O)C(C)(O)CC1C` (stereo not drawn) [syzx-190], for which, in assay [1], the “MIC values, Staphylococcus aureus CVCC26003” value turned out to be 0.25 ug/mi. In addition, in assay [2], the “MIC values, Actinobacillus pleuropneumoniae CVCC262” value is recorded as 0.5 ug/mi. Besides, the “MIC values, Haemophilus parasuis” value in the assay with Haemophilus parasuis is recorded as 0.25 ug/mi. Besides, the “MIC values, Pasteurella multocida CVCC399” value in assay [3] is 1 ug/mi. The “MIC values, Streptococcus equines CVCC556” value in assay [4] was 0.25 ug/mi.

As to `CCCN1C[C@H](C)[C@@H](O)[C@](C)(O)[C@@H](CC)OC(=O)[C@H](C)[C@@H](O[C@H]2C[C@@](C)(OC)[C@](O)(CNCCc3ccncc3)[C@H](C)O2)[C@H](C)[C@@H](O[C@@H]2O[C@H](C)C[C@H](N(C)C)[C@H]2O)[C@](C)(O)C[C@H]1C` [syzx-191], the “MIC values, Staphylococcus aureus CVCC26003” value in assay [1] stood at 1 ug/mi. Besides, the “MIC values, Actinobacillus pleuropneumoniae CVCC262” value in assay [2] turned out to be 0.5 ug/mi. Moreover, the “MIC values, Haemophilus parasuis” value against Haemophilus parasuis amounted to 0.5 ug/mi. Also, in assay [3], the “MIC values, Pasteurella multocida CVCC399” value turned out to be 4 ug/mi. For the same compound, the “MIC values, Streptococcus equines CVCC556” value in assay [4] stood at 0.5 ug/mi.

For the compound `CCCN1C[C@H](C)[C@@H](O)[C@](C)(O)[C@@H](CC)OC(=O)[C@H](C)[C@@H](O[C@H]2C[C@@](C)(OC)[C@](O)(CNCc3ccccc3F)[C@H](C)O2)[C@H](C)[C@@H](O[C@@H]2O[C@H](C)C[C@H](N(C)C)[C@H]2O)[C@](C)(O)C[C@H]1C` [syzx-192], the “MIC values, Staphylococcus aureus CVCC26003” value in assay [1] came out at 4 ug/mi. Also, the “MIC values, Actinobacillus pleuropneumoniae CVCC262” value in assay [2] was found to be 4 ug/mi. Further, in the assay on Haemophilus parasuis, the “MIC values, Haemophilus parasuis” value was 4 ug/mi. Further, in assay [3], the “MIC values, Pasteurella multocida CVCC399” value is on record as 4 ug/mi. In assay [4], the “MIC values, Streptococcus equines CVCC556” value worked out at 0.5 ug/mi.

On to `CCCN1C[C@H](C)[C@@H](O)[C@](C)(O)[C@@H](CC)OC(=O)[C@H](C)[C@@H](O[C@H]2C[C@@](C)(OC)[C@](O)(CNCC3CCNCC3)[C@H](C)O2)[C@H](C)[C@@H](O[C@@H]2O[C@H](C)C[C@H](N(C)C)[C@H]2O)[C@](C)(O)C[C@H]1C` [syzx-193], for which the “MIC values, Staphylococcus aureus CVCC26003” value in assay [1] is recorded as 4 ug/mi. Further, the “MIC values, Actinobacillus pleuropneumoniae CVCC262” value in assay [2] is given as 4 ug/mi. In the assay with Haemophilus parasuis, the “MIC values, Haemophilus parasuis” value came to 2 ug/mi. Also, in assay [3], the “MIC values, Pasteurella multocida CVCC399” value is reported as 2 ug/mi. For the same compound, the “MIC values, Streptococcus equines CVCC556” value in assay [4] turned out to be 0.25 ug/mi.

`CCCN1C[C@H](C)[C@@H](O)[C@](C)(O)[C@@H](CC)OC(=O)[C@H](C)[C@@H](O[C@H]2C[C@@](C)(OC)[C@](O)(CNc3ccc(Cl)cc3C)[C@H](C)O2)[C@H](C)[C@@H](O[C@@H]2O[C@H](C)C[C@H](N(C)C)[C@H]2O)[C@](C)(O)C[C@H]1C` [syzx-197]: the “MIC values, Staphylococcus aureus CVCC26003” value in assay [1] is 0.25 ug/mi. For the same compound, the “MIC values, Actinobacillus pleuropneumoniae CVCC262” value in assay [2] was 0.5 ug/mi. Further, the “MIC values, Haemophilus parasuis” value against Haemophilus parasuis came to 0.25 ug/mi. Further, the “MIC values, Pasteurella multocida CVCC399” value in assay [3] is 1 ug/mi. In addition, in assay [4], the “MIC values, Streptococcus equines CVCC556” value is listed as 0.25 ug/mi.

On to `CCCCN(C)C[C@]1(O)[C@H](C)O[C@@H](O[C@H]2[C@H](C)[C@@H](O[C@@H]3O[C@H](C)C[C@H](N(C)C)[C@H]3O)[C@](C)(O)C[C@@H](C)N(CCC)C[C@H](C)[C@@H](O)[C@](C)(O)[C@@H](CC)OC(=O)[C@@H]2C)C[C@@]1(C)OC` [syzx-198], for which the “MIC values, Staphylococcus aureus CVCC26003” value in assay [1] is 1 ug/mi. Moreover, the “MIC values, Actinobacillus pleuropneumoniae CVCC262” value in assay [2] was 0.5 ug/mi. For the same compound, the “MIC values, Haemophilus parasuis” value in the assay with Haemophilus parasuis came to 0.5 ug/mi. For the same compound, in assay [3], the “MIC values, Pasteurella multocida CVCC399” value came to 4 ug/mi. For the same compound, in assay [4], the “MIC values, Streptococcus equines CVCC556” value was 0.5 ug/mi.
